Experimental data as given in PubChem BioAssay AID1963970 (Molecular Pharmacology Branch, DTP, NCI, 2024).

Test system: 931267-113-T-J1-PDC multicell spheroid viability
Experiment: Anticancer human tumor 931267-113-T-J1-PDC patient-derived colon adenocarcinoma cell line growth inhibition [PI3K]
Settings: for IC50: curve of first compound; for viability, T/C: stronger effect = lower value; active means viability on the fitted dose curve at most 10% of control; inactive means the rest
Procedure, shortened: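 Viability of mixed-cell spheroids was determined after exposure to pairwise combinations, one partner being inavolisib, alpelisib, duvelisib or copanlisib. Highest tested concentration matched clinical Cmax where known and 10 microM where not, descending in half-log steps.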

[1] = second compound 0.00316 µM, first compound 0.0316 µM
[2] = second compound 0.00316 µM, first compound 0.1 µM
[3] = second compound 0.01 µM, first compound 0.0316 µM
[4] = second compound 0.01 µM, first compound 0.1 µM
[5] = second compound 0.0316 µM, first compound 0.0316 µM
[6] = second compound 0.0316 µM, first compound 0.1 µM
[7] = second compound 0.1 µM, first compound 0.0316 µM
[8] = second compound 0.1 µM, first compound 0.1 µM
[9] = second compound 0.316 µM, first compound 0.0316 µM
[10] = second compound 0.316 µM, first compound 0.1 µM
[11] = second compound 1 µM, first compound 0.0316 µM
[12] = second compound 1 µM, first compound 0.1 µM
[13] = second compound 0.0316 µM, first compound 0.316 µM
[14] = second compound 0.0316 µM, first compound 1 µM
[15] = second compound 0.0316 µM, first compound 3.16 µM
[16] = second compound 0.0316 µM, first compound 10 µM
[17] = second compound 0.1 µM, first compound 0.316 µM
[18] = second compound 0.1 µM, first compound 1 µM
[19] = second compound 0.1 µM, first compound 3.16 µM
[20] = second compound 0.1 µM, first compound 10 µM
[21] = second compound 0.316 µM, first compound 0.316 µM
[22] = second compound 0.316 µM, first compound 1 µM
[23] = second compound 0.316 µM, first compound 3.16 µM
[24] = second compound 0.316 µM, first compound 10 µM
[25] = second compound 1 µM, first compound 0.316 µM
[26] = second compound 1 µM, first compound 1 µM
[27] = second compound 1 µM, first compound 3.16 µM
[28] = second compound 1 µM, first compound 10 µM
[29] = second compound 3.16 µM, first compound 0.0316 µM
[30] = second compound 3.16 µM, first compound 0.1 µM
[31] = second compound 3.16 µM, first compound 0.316 µM
[32] = second compound 3.16 µM, first compound 1 µM
[33] = second compound 3.16 µM, first compound 3.16 µM
[34] = second compound 3.16 µM, first compound 10 µM
[35] = second compound 10 µM, first compound 0.0316 µM
[36] = second compound 10 µM, first compound 0.1 µM
[37] = second compound 10 µM, first compound 0.316 µM
[38] = second compound 10 µM, first compound 1 µM
[39] = second compound 10 µM, first compound 3.16 µM
[40] = second compound 10 µM, first compound 10 µM
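Further: viability read 7 days after compound addition.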

CC(C)n1nc(-c2ccc3oc(N)nc3c2)c2c(N)ncnc21 + CC(Nc1ccc2c(c1)OCCn1cc(N3C(=O)OCC3C(F)F)nc1-2)C(N)=O
80.1 nM: IC50 (second compound 0.00316 µM)
37.7 nM: IC50 (second compound 1 µM)
66.6 nM: IC50 (second compound 0.0316 µM)
> 100 nM: IC50 (second compound 0.01 µM)
48.7 nM: IC50 (second compound 0.316 µM)
inactive: viability, T/C (second compound 0.00316 µM, first compound 0.000316 µM) 94.6% | viability, T/C (second compound 0.00316 µM, first compound 0.001 µM) 98% | viability, T/C (second compound 0.00316 µM, first compound 0.00316 µM) 83% | viability, T/C (second compound 0.00316 µM, first compound 0.01 µM) 91.5% | viability, T/C [1] 80.2% | viability, T/C [2] 42.5% | viability, T/C (second compound 0.01 µM, first compound 0.000316 µM) 104% | viability, T/C (second compound 0.01 µM, first compound 0.001 µM) 101% | viability, T/C (second compound 0.01 µM, first compound 0.00316 µM) 86% | viability, T/C (second compound 0.01 µM, first compound 0.01 µM) 81.1% | viability, T/C [3] 68% | viability, T/C [4] 52.2% | viability, T/C (second compound 0.0316 µM, first compound 0.000316 µM) 97.7% | viability, T/C (second compound 0.0316 µM, first compound 0.001 µM) 104% | viability, T/C (second compound 0.0316 µM, first compound 0.00316 µM) 101% | viability, T/C (second compound 0.0316 µM, first compound 0.01 µM) 90% | viability, T/C [5] 71% | viability, T/C [6] 38.8% | viability, T/C (second compound 0.1 µM, first compound 0.000316 µM) 89.4% | viability, T/C (second compound 0.1 µM, first compound 0.001 µM) 83.8% | viability, T/C (second compound 0.1 µM, first compound 0.00316 µM) 93% | viability, T/C (second compound 0.1 µM, first compound 0.01 µM) 77.7% | viability, T/C [7] 64.1% | viability, T/C [8] 39.6% | viability, T/C (second compound 0.316 µM, first compound 0.000316 µM) 82.7% | viability, T/C (second compound 0.316 µM, first compound 0.001 µM) 82.7% | viability, T/C (second compound 0.316 µM, first compound 0.00316 µM) 69% | viability, T/C (second compound 0.316 µM, first compound 0.01 µM) 70.8% | viability, T/C [9] 59.2% | viability, T/C [10] 36.7% | viability, T/C (second compound 1 µM, first compound 0.000316 µM) 72.5% | viability, T/C (second compound 1 µM, first compound 0.001 µM) 69.3% | viability, T/C (second compound 1 µM, first compound 0.00316 µM) 70.6% | viability, T/C (second compound 1 µM, first compound 0.01 µM) 59% | viability, T/C [11] 55.9% | viability, T/C [12] 31.8%
60.7 nM: IC50 (second compound 0.1 µM)

C=CC(=O)N1CCN(c2nc(=O)n(-c3c(C)ccnc3C(C)C)c3nc(-c4c(O)cccc4F)c(F)cc23)C(C)C1 (stereo not drawn) + CC(Nc1ncnc2nc[nH]c12)c1cc2cccc(Cl)c2c(=O)n1-c1ccccc1
> 10000 nM: IC50 (second compound 0.0316 µM) | IC50 (second compound 0.1 µM) | IC50 (second compound 0.316 µM) | IC50 (second compound 1 µM) | IC50 (second compound 3.16 µM) | IC50 (second compound 10 µM)
inactive: viability, T/C [5] 97.5% | viability, T/C [6] 103% | viability, T/C [13] 96.6% | viability, T/C [14] 111% | viability, T/C [15] 107% | viability, T/C [16] 107% | viability, T/C [7] 110% | viability, T/C [8] 113% | viability, T/C [17] 107% | viability, T/C [18] 111% | viability, T/C [19] 117% | viability, T/C [20] 94.2% | viability, T/C [9] 112% | viability, T/C [10] 109% | viability, T/C [21] 116% | viability, T/C [22] 107% | viability, T/C [23] 114% | viability, T/C [24] 96.5% | viability, T/C [11] 108% | viability, T/C [12] 109% | viability, T/C [25] 99.5% | viability, T/C [26] 105% | viability, T/C [27] 111% | viability, T/C [28] 88.3% | viability, T/C [29] 104% | viability, T/C [30] 101% | viability, T/C [31] 93.5% | viability, T/C [32] 99.9% | viability, T/C [33] 107% | viability, T/C [34] 87% | viability, T/C [35] 94.9% | viability, T/C [36] 96.8% | viability, T/C [37] 107% | viability, T/C [38] 98.1% | viability, T/C [39] 106% | viability, T/C [40] 102%

C#Cc1c(F)ccc2cc(O)cc(-c3ncc4c(N5CC6CCC(C5)N6)nc(OCC56CCCN5CC(F)C6)nc4c3F)c12 (stereo not drawn) + Cc1nc(NC(=O)N2CCCC2C(N)=O)sc1-c1ccnc(C(C)(C)C(F)(F)F)c1
inactive: viability, T/C [5] 80.2% | viability, T/C [6] 71.2% | viability, T/C [13] 50.4% | viability, T/C [14] 40% | viability, T/C [15] 29.8% | viability, T/C [16] 23.8% | viability, T/C [7] 84.3% | viability, T/C [8] 71.8% | viability, T/C [17] 54.1% | viability, T/C [18] 41.4% | viability, T/C [19] 25.6% | viability, T/C [20] 19.4% | viability, T/C [9] 72.6% | viability, T/C [10] 59.2% | viability, T/C [21] 41.4% | viability, T/C [22] 30.9% | viability, T/C [23] 26.3% | viability, T/C [24] 15.3% | viability, T/C [11] 67.3% | viability, T/C [12] 54.3% | viability, T/C [25] 37.2% | viability, T/C [26] 28.3% | viability, T/C [27] 21% | viability, T/C [28] 13.7% | viability, T/C [29] 67% | viability, T/C [30] 51.9% | viability, T/C [31] 29.4% | viability, T/C [32] 21.2% | viability, T/C [33] 15.8% | viability, T/C [34] 11.5% | viability, T/C [35] 49.1% | viability, T/C [36] 38.7% | viability, T/C [37] 25.2% | viability, T/C [38] 18.8% | viability, T/C [39] 16.9% | viability, T/C [40] 9.04%
403 nM: IC50 (second compound 0.0316 µM)
104 nM: IC50 (second compound 3.16 µM)
127 nM: IC50 (second compound 1 µM)
467 nM: IC50 (second compound 0.1 µM)
183 nM: IC50 (second compound 0.316 µM)
< 31.6 nM: IC50 (second compound 10 µM)

C#Cc1c(F)ccc2cc(O)cc(-c3ncc4c(N5CC6CCC(C5)N6)nc(OCC56CCCN5CC(F)C6)nc4c3F)c12 (stereo not drawn) + COc1c(OCCCN2CCOCC2)ccc2c3n(c(=NC(=O)c4cnc(N)nc4)nc12)CCN3
< 31.6 nM: IC50 (second compound 0.316 µM) | IC50 (second compound 1 µM)
238 nM: IC50 (second compound 0.01 µM)
384 nM: IC50 (second compound 0.00316 µM)
37.8 nM: IC50 (second compound 0.1 µM)
inactive: viability, T/C [1] 78.6% | viability, T/C [2] 67.9% | viability, T/C (second compound 0.00316 µM, first compound 0.316 µM) 51.9% | viability, T/C (second compound 0.00316 µM, first compound 1 µM) 38% | viability, T/C (second compound 0.00316 µM, first compound 3.16 µM) 24.8% | viability, T/C (second compound 0.00316 µM, first compound 10 µM) 17.2% | viability, T/C [3] 84.7% | viability, T/C [4] 70.5% | viability, T/C (second compound 0.01 µM, first compound 0.316 µM) 39.2% | viability, T/C (second compound 0.01 µM, first compound 1 µM) 32.4% | viability, T/C (second compound 0.01 µM, first compound 3.16 µM) 21.2% | viability, T/C (second compound 0.01 µM, first compound 10 µM) 15.9% | viability, T/C [5] 62.3% | viability, T/C [6] 52.1% | viability, T/C [13] 30.2% | viability, T/C [14] 23.8% | viability, T/C [15] 21.4% | viability, T/C [16] 11% | viability, T/C [7] 54% | viability, T/C [8] 34.4% | viability, T/C [17] 25.5% | viability, T/C [18] 19% | viability, T/C [19] 13.3% | viability, T/C [9] 36.4% | viability, T/C [10] 26.7% | viability, T/C [21] 17.1% | viability, T/C [22] 10.5% | viability, T/C [11] 24.3% | viability, T/C [12] 20.9% | viability, T/C [25] 11.7%
active: viability, T/C [20] 6.82% | viability, T/C [23] 7.67% | viability, T/C [24] 4.44% | viability, T/C [26] 8.76% | viability, T/C [27] 5.6% | viability, T/C [28] 3.48%
93.2 nM: IC50 (second compound 0.0316 µM)
